These compounds were tested on HAL-01 (assay: cells). Conditions: Homo sapiens, HAL-01.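 Further: growth inhibition of human HAL-01 cells, read out with a cell viability assay.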
Type: functional, cell-based, Homo sapiens
Description: SANGER: Inhibition of human HAL-01 cell growth in a cell viability assay.
For CC1(C)CNc2cc(NC(=O)c3cccnc3NCc3ccncc3)ccc21 [MOTESANIB], the IC50 was > 2000 nM.

The compounds below were run on BE-13 (assay: cells). Conditions: Homo sapiens, BE-13.
Type: functional, cell-based, Homo sapiens
Description: SANGER: Inhibition of human BE-13 cell growth in a cell viability assay.
CC1(C)CNc2cc(NC(=O)c3cccnc3NCc3ccncc3)ccc21 [MOTESANIB] was tested, and the IC50 was > 2000 nM.

The compounds below were run on NCI-H1299 (assay: cells). Conditions: Homo sapiens, NCI-H1299.
Type: functional, cell-based, Homo sapiens
Description: SANGER: Inhibition of human NCI-H1299 cell growth in a cell viability assay.
With CC1(C)CNc2cc(NC(=O)c3cccnc3NCc3ccncc3)ccc21 [MOTESANIB] the IC50 was > 2000 nM.

Each compound was assayed on L-428 (assay: cells). Conditions: Homo sapiens, L-428.
Type: functional, cell-based, Homo sapiens
Description: SANGER: Inhibition of human L-428 cell growth in a cell viability assay.
With CC1(C)CNc2cc(NC(=O)c3cccnc3NCc3ccncc3)ccc21 [MOTESANIB] the IC50 was > 2000 nM.

These compounds were tested on A3-KAW (assay: cells). Conditions: Homo sapiens, A3-KAW.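 Further: growth inhibition of human A3-KAW cells, read out with a cell viability assay.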
Type: functional, cell-based, Homo sapiens
Description: SANGER: Inhibition of human A3-KAW cell growth in a cell viability assay.
With CC1(C)CNc2cc(NC(=O)c3cccnc3NCc3ccncc3)ccc21 [MOTESANIB] the IC50 was > 2000 nM.

These compounds were tested on A704 (assay: cells). Conditions: Homo sapiens, A704.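 Further: growth inhibition of human A704 cells, read out with a cell viability assay.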
Type: functional, cell-based, Homo sapiens
Description: SANGER: Inhibition of human A704 cell growth in a cell viability assay.
In the case of CC1(C)CNc2cc(NC(=O)c3cccnc3NCc3ccncc3)ccc21 [MOTESANIB], the IC50 is reported as > 2000 nM.

These compounds were tested on BB30-HNC (assay: cells). Conditions: Homo sapiens, BB30-HNC.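 Further: growth inhibition of the cultured cell line, read out by a cell viability assay.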
Type: functional, cell-based, Homo sapiens
Description: SANGER: Inhibition of human BB30-HNC cell growth in a cell viability assay.
In the case of CC1(C)CNc2cc(NC(=O)c3cccnc3NCc3ccncc3)ccc21 [MOTESANIB], the IC50 is reported as > 2000 nM.

What follows are compounds tested on COLO-824 (assay: cells). Conditions: Homo sapiens, COLO-824.
Type: functional, cell-based, Homo sapiens
Description: SANGER: Inhibition of human COLO-824 cell growth in a cell viability assay.
In the case of CC1(C)CNc2cc(NC(=O)c3cccnc3NCc3ccncc3)ccc21 [MOTESANIB], the IC50 is reported as > 2000 nM.

These compounds were tested on NCI-H1650 (assay: cells). Conditions: Homo sapiens, NCI-H1650.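 Further: growth inhibition of human NCI-H1650 cells measured by a cell viability assay.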
Type: functional, cell-based, Homo sapiens
Description: SANGER: Inhibition of human NCI-H1650 cell growth in a cell viability assay.
CC1(C)CNc2cc(NC(=O)c3cccnc3NCc3ccncc3)ccc21 [MOTESANIB] was tested, and the IC50 was > 2000 nM.

What follows are compounds tested on GCIY (assay: cells). Conditions: Homo sapiens, GCIY.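 Further: growth inhibition of the human GCIY cell line, read out by a cell viability assay.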
Type: functional, cell-based, Homo sapiens
Description: SANGER: Inhibition of human GCIY cell growth in a cell viability assay.
For CC1(C)CNc2cc(NC(=O)c3cccnc3NCc3ccncc3)ccc21 [MOTESANIB], the IC50 was > 2000 nM.

The compounds below were run on IA-LM (assay: cells). Conditions: Homo sapiens, IA-LM.
Type: functional, cell-based, Homo sapiens
Description: SANGER: Inhibition of human IA-LM cell growth in a cell viability assay.
For CC1(C)CNc2cc(NC(=O)c3cccnc3NCc3ccncc3)ccc21 [MOTESANIB], the IC50 was > 2000 nM.

Each compound was assayed on NCI-H82 (assay: cells). Conditions: Homo sapiens, NCI-H82.
Type: functional, cell-based, Homo sapiens
Description: SANGER: Inhibition of human NCI-H82 cell growth in a cell viability assay.
With CC1(C)CNc2cc(NC(=O)c3cccnc3NCc3ccncc3)ccc21 [MOTESANIB] the IC50 was > 2000 nM.

What follows are compounds tested on LS-1034 (assay: cells). Conditions: Homo sapiens, LS-1034.
Type: functional, cell-based, Homo sapiens
Description: SANGER: Inhibition of human LS-1034 cell growth in a cell viability assay.
With CC1(C)CNc2cc(NC(=O)c3cccnc3NCc3ccncc3)ccc21 [MOTESANIB] the IC50 was > 2000 nM.

These compounds were tested on TE-11 (assay: cells). Conditions: Homo sapiens, TE-11.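 Further: growth inhibition of human TE-11 cells, read out by a cell viability assay.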
Type: functional, cell-based, Homo sapiens
Description: SANGER: Inhibition of human TE-11 cell growth in a cell viability assay.
For CC1(C)CNc2cc(NC(=O)c3cccnc3NCc3ccncc3)ccc21 [MOTESANIB], the IC50 was > 2000 nM.

The compounds below were run on OCUB-M (assay: cells). Conditions: Homo sapiens, OCUB-M.
Type: functional, cell-based, Homo sapiens
Description: SANGER: Inhibition of human OCUB-M cell growth in a cell viability assay.
CC1(C)CNc2cc(NC(=O)c3cccnc3NCc3ccncc3)ccc21 [MOTESANIB] was tested, and the IC50 was > 2000 nM.

These compounds were tested on GR-ST (assay: cells). Conditions: Homo sapiens, GR-ST.
Type: functional, cell-based, Homo sapiens
Description: SANGER: Inhibition of human GR-ST cell growth in a cell viability assay.
In the case of CC1(C)CNc2cc(NC(=O)c3cccnc3NCc3ccncc3)ccc21 [MOTESANIB], the IC50 is reported as > 2000 nM.

What follows are compounds tested on BB65-RCC (assay: cells). Conditions: Homo sapiens, BB65-RCC.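 Further: growth inhibition of the cell line, measured with a cell viability assay.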
Type: functional, cell-based, Homo sapiens
Description: SANGER: Inhibition of human BB65-RCC cell growth in a cell viability assay.
For CC1(C)CNc2cc(NC(=O)c3cccnc3NCc3ccncc3)ccc21 [MOTESANIB], the IC50 was > 2000 nM.

These compounds were tested on NCI-H1395 (assay: cells). Conditions: Homo sapiens, NCI-H1395.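 Further: cell viability assay read-out quantifying reduced proliferation of human NCI-H1395 cells.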
Type: functional, cell-based, Homo sapiens
Description: SANGER: Inhibition of human NCI-H1395 cell growth in a cell viability assay.
In the case of CC1(C)CNc2cc(NC(=O)c3cccnc3NCc3ccncc3)ccc21 [MOTESANIB], the IC50 is reported as > 2000 nM.

What follows are compounds tested on L-363 (assay: cells). Conditions: Homo sapiens, L-363.
Type: functional, cell-based, Homo sapiens
Description: SANGER: Inhibition of human L-363 cell growth in a cell viability assay.
For CC1(C)CNc2cc(NC(=O)c3cccnc3NCc3ccncc3)ccc21 [MOTESANIB], the IC50 was > 2000 nM.

The compounds below were run on MPP-89 (assay: cells). Conditions: Homo sapiens, MPP-89.
Type: functional, cell-based, Homo sapiens
Description: SANGER: Inhibition of human MPP-89 cell growth in a cell viability assay.
With CC1(C)CNc2cc(NC(=O)c3cccnc3NCc3ccncc3)ccc21 [MOTESANIB] the IC50 was > 2000 nM.

What follows are compounds tested on GOTO (assay: cells). Conditions: Homo sapiens, GOTO.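 Further: growth inhibition of GOTO cells, read out by a cell viability assay.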
Type: functional, cell-based, Homo sapiens
Description: SANGER: Inhibition of human GOTO cell growth in a cell viability assay.
For CC1(C)CNc2cc(NC(=O)c3cccnc3NCc3ccncc3)ccc21 [MOTESANIB], the IC50 was > 2000 nM.

The compounds below were run on TE-5 (assay: cells). Conditions: Homo sapiens, TE-5.
Type: functional, cell-based, Homo sapiens
Description: SANGER: Inhibition of human TE-5 cell growth in a cell viability assay.
For CC1(C)CNc2cc(NC(=O)c3cccnc3NCc3ccncc3)ccc21 [MOTESANIB], the IC50 was > 2000 nM.

These compounds were tested on SW 962 (assay: cells). Conditions: Homo sapiens, SW 962.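 Further: growth inhibition of human SW962 cells, read out by a cell viability assay.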
Type: functional, cell-based, Homo sapiens
Description: SANGER: Inhibition of human SW962 cell growth in a cell viability assay.
CC1(C)CNc2cc(NC(=O)c3cccnc3NCc3ccncc3)ccc21 [MOTESANIB] was tested, and the IC50 was > 2000 nM.

What follows are compounds tested on NOMO-1 (assay: cells). Conditions: Homo sapiens, NOMO-1.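 Further: growth inhibition of human NOMO-1 cells measured by a cell viability assay.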
Type: functional, cell-based, Homo sapiens
Description: SANGER: Inhibition of human NOMO-1 cell growth in a cell viability assay.
In the case of CC1(C)CNc2cc(NC(=O)c3cccnc3NCc3ccncc3)ccc21 [MOTESANIB], the IC50 is reported as > 2000 nM.

Each compound was assayed on SK-MEL-1 (assay: cells). Conditions: Homo sapiens, SK-MEL-1.
Type: functional, cell-based, Homo sapiens
Description: SANGER: Inhibition of human SK-MEL-1 cell growth in a cell viability assay.
CC1(C)CNc2cc(NC(=O)c3cccnc3NCc3ccncc3)ccc21 [MOTESANIB] was tested, and the IC50 was > 2000 nM.

The compounds below were run on 8-MG-BA (assay: cells). Conditions: Homo sapiens, 8-MG-BA.
Type: functional, cell-based, Homo sapiens
Description: SANGER: Inhibition of human 8-MG-BA cell growth in a cell viability assay.
With CC1(C)CNc2cc(NC(=O)c3cccnc3NCc3ccncc3)ccc21 [MOTESANIB] the IC50 was > 2000 nM.

What follows are compounds tested on NCI-H747 (assay: cells). Conditions: Homo sapiens, NCI-H747.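 Further: growth inhibition of human NCI-H747 cells, read out by a cell viability assay.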
Type: functional, cell-based, Homo sapiens
Description: SANGER: Inhibition of human NCI-H747 cell growth in a cell viability assay.
With CC1(C)CNc2cc(NC(=O)c3cccnc3NCc3ccncc3)ccc21 [MOTESANIB] the IC50 was > 2000 nM.

What follows are compounds tested on A101D (assay: cells). Conditions: Homo sapiens, A101D.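 Further: growth inhibition of the cell line, measured with a viability assay.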
Type: functional, cell-based, Homo sapiens
Description: SANGER: Inhibition of human A101D cell growth in a cell viability assay.
CC1(C)CNc2cc(NC(=O)c3cccnc3NCc3ccncc3)ccc21 [MOTESANIB] was tested, and the IC50 was > 2000 nM.

The compounds below were run on SK-N-FI (assay: cells). Conditions: Homo sapiens, SK-N-FI.
Type: functional, cell-based, Homo sapiens
Description: SANGER: Inhibition of human SK-N-FI cell growth in a cell viability assay.
In the case of CC1(C)CNc2cc(NC(=O)c3cccnc3NCc3ccncc3)ccc21 [MOTESANIB], the IC50 is reported as > 2000 nM.

What follows are compounds tested on MSTO-211H (assay: cells). Conditions: Homo sapiens, MSTO-211H.
Type: functional, cell-based, Homo sapiens
Description: SANGER: Inhibition of human MSTO-211H cell growth in a cell viability assay.
For CC1(C)CNc2cc(NC(=O)c3cccnc3NCc3ccncc3)ccc21 [MOTESANIB], the IC50 was > 2000 nM.

These compounds were tested on NB12 (assay: cells). Conditions: Homo sapiens, NB12.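 Further: growth inhibition of human NB12 cells, read out by a cell viability assay.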
Type: functional, cell-based, Homo sapiens
Description: SANGER: Inhibition of human NB12 cell growth in a cell viability assay.
For CC1(C)CNc2cc(NC(=O)c3cccnc3NCc3ccncc3)ccc21 [MOTESANIB], the IC50 was > 2000 nM.

Each compound was assayed on KP-N-YS (assay: cells). Conditions: Homo sapiens, KP-N-YS.
Type: functional, cell-based, Homo sapiens
Description: SANGER: Inhibition of human KP-N-YS cell growth in a cell viability assay.
With CC1(C)CNc2cc(NC(=O)c3cccnc3NCc3ccncc3)ccc21 [MOTESANIB] the IC50 was > 2000 nM.

Each compound was assayed on J-RT3-T3-5 (assay: cells). Conditions: Homo sapiens, J-RT3-T3-5.
Type: functional, cell-based, Homo sapiens
Description: SANGER: Inhibition of human J-RT3-T3-5 cell growth in a cell viability assay.
For CC1(C)CNc2cc(NC(=O)c3cccnc3NCc3ccncc3)ccc21 [MOTESANIB], the IC50 was > 2000 nM.

The compounds below were run on D283 Med (assay: cells). Conditions: Homo sapiens, D283 Med.
Type: functional, cell-based, Homo sapiens
Description: SANGER: Inhibition of human D-283MED cell growth in a cell viability assay.
CC1(C)CNc2cc(NC(=O)c3cccnc3NCc3ccncc3)ccc21 [MOTESANIB] was tested, and the IC50 was > 2000 nM.

The compounds below were run on TGW (assay: cells). Conditions: Homo sapiens, TGW.
Type: functional, cell-based, Homo sapiens
Description: SANGER: Inhibition of human TGW cell growth in a cell viability assay.
CC1(C)CNc2cc(NC(=O)c3cccnc3NCc3ccncc3)ccc21 [MOTESANIB] was tested, and the IC50 was > 2000 nM.

The compounds below were run on IST-MEL1 (assay: cells). Conditions: Homo sapiens, IST-MEL1.
Type: functional, cell-based, Homo sapiens
Description: SANGER: Inhibition of human IST-MEL1 cell growth in a cell viability assay.
In the case of CC1(C)CNc2cc(NC(=O)c3cccnc3NCc3ccncc3)ccc21 [MOTESANIB], the IC50 is reported as > 2000 nM.

The compounds below were run on MOLT-16 (assay: cells). Conditions: Homo sapiens, MOLT-16.
Type: functional, cell-based, Homo sapiens
Description: SANGER: Inhibition of human MOLT-16 cell growth in a cell viability assay.
For CC1(C)CNc2cc(NC(=O)c3cccnc3NCc3ccncc3)ccc21 [MOTESANIB], the IC50 was > 2000 nM.

Each compound was assayed on NB6 (assay: cells). Conditions: Homo sapiens, NB6.
Type: functional, cell-based, Homo sapiens
Description: SANGER: Inhibition of human NB6 cell growth in a cell viability assay.
With CC1(C)CNc2cc(NC(=O)c3cccnc3NCc3ccncc3)ccc21 [MOTESANIB] the IC50 was > 2000 nM.

The compounds below were run on ES6 (assay: cells). Conditions: Homo sapiens, ES6.
Type: functional, cell-based, Homo sapiens
Description: SANGER: Inhibition of human ES6 cell growth in a cell viability assay.
For CC1(C)CNc2cc(NC(=O)c3cccnc3NCc3ccncc3)ccc21 [MOTESANIB], the IC50 was > 2000 nM.

Each compound was assayed on HCC2157 (assay: cells). Conditions: Homo sapiens, HCC2157.
Type: functional, cell-based, Homo sapiens
Description: SANGER: Inhibition of human HCC2157 cell growth in a cell viability assay.
With CC1(C)CNc2cc(NC(=O)c3cccnc3NCc3ccncc3)ccc21 [MOTESANIB] the IC50 was > 2000 nM.

The compounds below were run on ES4 (assay: cells). Conditions: Homo sapiens, ES4.
Type: functional, cell-based, Homo sapiens
Description: SANGER: Inhibition of human ES4 cell growth in a cell viability assay.
In the case of CC1(C)CNc2cc(NC(=O)c3cccnc3NCc3ccncc3)ccc21 [MOTESANIB], the IC50 is reported as > 2000 nM.

What follows are compounds tested on CGTH-W-1 (assay: cells). Conditions: Homo sapiens, CGTH-W-1.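 Further: growth inhibition of human CGTH-W-1 cells measured by cell viability assay.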
Type: functional, cell-based, Homo sapiens
Description: SANGER: Inhibition of human CGTH-W-1 cell growth in a cell viability assay.
CC1(C)CNc2cc(NC(=O)c3cccnc3NCc3ccncc3)ccc21 [MOTESANIB] showed an IC50 of 670 nM.

What follows are compounds tested on NCI-H720 (assay: cells). Conditions: Homo sapiens, NCI-H720.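 Further: growth inhibition of human NCI-H720 cells determined by a cell viability assay.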
Type: functional, cell-based, Homo sapiens
Description: SANGER: Inhibition of human NCI-H720 cell growth in a cell viability assay.
For CC1(C)CNc2cc(NC(=O)c3cccnc3NCc3ccncc3)ccc21 [MOTESANIB], the IC50 was > 2000 nM.

These compounds were tested on SF-268 (assay: cells). Conditions: Homo sapiens, SF-268.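 Further: growth inhibition of SF-268 cells determined with a cell viability assay.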
Type: functional, cell-based, Homo sapiens
Description: SANGER: Inhibition of human SF268 cell growth in a cell viability assay.
CC1(C)CNc2cc(NC(=O)c3cccnc3NCc3ccncc3)ccc21 [MOTESANIB] was tested, and the IC50 was > 2000 nM.

The compounds below were run on OVCAR-4 (assay: cells). Conditions: Homo sapiens, OVCAR-4.
Type: functional, cell-based, Homo sapiens
Description: SANGER: Inhibition of human OVCAR-4 cell growth in a cell viability assay.
In the case of CC1(C)CNc2cc(NC(=O)c3cccnc3NCc3ccncc3)ccc21 [MOTESANIB], the IC50 is reported as > 2000 nM.

These compounds were tested on NEC8 (assay: cells). Conditions: Homo sapiens, NEC8.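 Further: growth inhibition of human NEC8 cells, read out by a cell viability assay.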
Type: functional, cell-based, Homo sapiens
Description: SANGER: Inhibition of human NEC8 cell growth in a cell viability assay.
With CC1(C)CNc2cc(NC(=O)c3cccnc3NCc3ccncc3)ccc21 [MOTESANIB] the IC50 was > 2000 nM.
